For 38 molecules, IC50 and Activity results are on record in ChEMBL document CHEMBL1153272, “(2-Aryl-5-methylimidazol-4-ylcarbonyl)guanidines and (2-aryl-5-methyloxazol-4-ylcarbonyl)guanidines as NHE-1 inhibitors” (Bioorg Med Chem Lett, 2009).

Usually IC50 stands for the concentration that gives 50% inhibition.

Assay [1] has as its target Sodium/hydrogen exchanger 1 (Homo sapiens, UniProt P19634). As to the kind of experiment: Inhibition of human NHE1 expressed in PS120 cells assessed as imposed acidosis. It counts as cell-based.
Assay [2] deals with Heart. Description: Cardioprotective activity in Langendorff perfused rat heart assessed as left ventricular end diastolic pressure at 10 uM treated 10 mins before global ischemia challenge for 30 mins followed by 30 mins of reperfusion. The format is functional.
The subject of assay [3] is Heart. As to the kind of experiment: Cardioprotective activity in Langendorff perfused rat heart assessed as recovery of rate pressure product at 10 uM treated 10 mins before global ischemia challenge for 30 mins followed by 30 mins of reperfusion. The format is functional.
The next assay relates to Rattus norvegicus. Description: Cardioprotective activity in Langendorff perfused rat myocardial infarction model assessed as ratio of myocardial infarction size to area at risk at 0.1 mg/kg, iv administered 5 mins before onset ischemia challenge followed by 90 mins reperfusion. The format is functional, Myocardium.

Sequence of Sodium/hydrogen exchanger 1 (P19634 whole entry, the tested form may be a part): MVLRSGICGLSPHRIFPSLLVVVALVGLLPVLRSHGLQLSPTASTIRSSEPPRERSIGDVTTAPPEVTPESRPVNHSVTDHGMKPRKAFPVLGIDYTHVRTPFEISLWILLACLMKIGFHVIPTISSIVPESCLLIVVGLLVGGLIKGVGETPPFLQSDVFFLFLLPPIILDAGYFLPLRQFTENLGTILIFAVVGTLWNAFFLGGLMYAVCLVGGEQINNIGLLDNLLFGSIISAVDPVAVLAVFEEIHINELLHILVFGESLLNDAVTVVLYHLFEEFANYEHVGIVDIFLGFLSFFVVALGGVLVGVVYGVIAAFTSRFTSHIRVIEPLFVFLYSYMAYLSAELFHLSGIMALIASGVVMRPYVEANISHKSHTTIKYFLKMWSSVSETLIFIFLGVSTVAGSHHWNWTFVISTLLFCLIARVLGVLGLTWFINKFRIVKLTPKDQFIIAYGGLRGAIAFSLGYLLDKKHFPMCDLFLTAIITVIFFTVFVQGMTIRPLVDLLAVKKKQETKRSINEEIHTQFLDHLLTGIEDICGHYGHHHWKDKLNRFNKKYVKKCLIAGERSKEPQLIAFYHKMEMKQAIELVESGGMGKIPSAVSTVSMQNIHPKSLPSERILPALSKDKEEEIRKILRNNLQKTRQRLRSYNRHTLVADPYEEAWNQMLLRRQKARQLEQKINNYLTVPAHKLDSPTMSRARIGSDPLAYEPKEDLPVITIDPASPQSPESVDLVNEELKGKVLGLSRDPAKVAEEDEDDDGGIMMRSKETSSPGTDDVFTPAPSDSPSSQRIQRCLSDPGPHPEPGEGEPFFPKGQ

Turning to `Cc1[nH]c(-c2ccccc2F)nc1C(=O)N=C(N)N`, the IC50 in assay [1] was 7.2 µM.

For `CS(=O)(=O)O.Cc1[nH]c(-c2cc(Cl)cc(Cl)c2)nc1C(=O)N=C(N)N`, the Activity with Heart [2] is listed as 28%; in the assay on Heart [3] it was 23%. In assay [1], the IC50 is 0.52 µM.

For the molecule `Cc1ccc(-c2nc(C(=O)N=C(N)N)c(C)[nH]2)cc1`, the IC50 in assay [1] is more than 30 µM.

`Cc1[nH]c(-c2cccc(F)c2)nc1C(=O)N=C(N)N`: the IC50 in assay [1] was 4.5 µM.

As for `Cc1cccc(-c2nc(C(=O)N=C(N)N)c(C)o2)c1`, the IC50 in assay [1] worked out at 6.6 µM.

Take `Cc1[nH]c(-c2cccc(Cl)c2Cl)nc1C(=O)N=C(N)N`: in assay [1], the IC50 worked out at 0.5 µM.

As to `CS(=O)(=O)O.Cc1oc(-c2cc(Cl)cc(Cl)c2)nc1C(=O)N=C(N)N`, the Activity is reported as 25% with Heart [2] and 26% in the assay with Heart [3]. In assay [1], the IC50 is 0.89 µM.

In the case of `Cc1cccc(-c2nc(C(=O)N=C(N)N)c(C)[nH]2)c1C`, the IC50 in assay [1] was more than 30 µM.

In the case of `COc1ccc(-c2nc(C(=O)N=C(N)N)c(C)[nH]2)cc1OC`, the IC50 in assay [1] was determined as 2.1 µM.

`Cc1cccc(-c2nc(C(=O)N=C(N)N)c(C)[nH]2)c1`: the IC50 in assay [1] is 12 µM.

As to `COc1cccc(-c2nc(C(=O)N=C(N)N)c(C)[nH]2)c1OC`, in assay [1], the IC50 is more than 30 µM.

In the case of `Cc1[nH]c(-c2cc(F)cc(F)c2)nc1C(=O)N=C(N)N`, in assay [1], the IC50 worked out at 2.7 µM.

Turning to `COc1ccc(F)cc1-c1nc(C(=O)N=C(N)N)c(C)[nH]1.CS(=O)(=O)O.CS(=O)(=O)O`, the Activity in the assay on Heart [2] is on record as 29%; in the assay on Heart [3], 27%. Also, the IC50 in assay [1] was 0.8 µM.

Take `COc1ccc(Cl)cc1-c1nc(C(=O)N=C(N)N)c(C)[nH]1.CS(=O)(=O)O.CS(=O)(=O)O`: the Activity came out at 28% in the assay on Heart [2], 60% with Heart [3] and 34% with Rattus norvegicus. In assay [1], the IC50 is 0.24 µM.

With `Cc1oc(-c2ccccc2)nc1C(=O)N=C(N)N`, the IC50 in assay [1] was found to be 8.2 µM.

On to `Cc1[nH]c(-c2ccc(Cl)cc2)nc1C(=O)N=C(N)N`, for which the IC50 in assay [1] is more than 30 µM.

With `CS(=O)(=O)O.CS(=O)(=O)O.Cc1[nH]c(-c2cc(Cl)ccc2Cl)nc1C(=O)N=C(N)N`, the values for the Activity in the assay with Heart [2], in the assay with Heart [3] and in the assay with Rattus norvegicus were 25%, 59% and 40%, respectively. In addition, in assay [1], the IC50 is 0.1 µM.

As for `CS(=O)(=O)O.Cc1oc(-c2cc(Cl)ccc2Cl)nc1C(=O)N=C(N)N`, the Activity was determined as 27% in the assay on Heart [2], 19% with Heart [3] and 39% in the assay with Rattus norvegicus. For the same molecule, the IC50 in assay [1] was 0.072 µM.

For the molecule `CS(=O)(=O)O.CS(=O)(=O)O.Cc1[nH]c(-c2ccccc2Cl)nc1C(=O)N=C(N)N`, the figures for the Activity in the assay with Heart [2], with Heart [3] and in the assay on Rattus norvegicus were 35%, 69% and 50%, respectively. Besides, the IC50 in assay [1] is 1.4 µM.

Consider `Cc1[nH]c(-c2ccccc2)nc1C(=O)N=C(N)N`, for which the IC50 in assay [1] stood at 12 µM.

With `Cc1[nH]c(-c2cccc(F)c2F)nc1C(=O)N=C(N)N`, the IC50 in assay [1] turned out to be 6.6 µM.

Turning to `CS(=O)(=O)O.Cc1ccc(C)c(-c2nc(C(=O)N=C(N)N)c(C)o2)c1`, the values for the Activity in the assay with Heart [2], in the assay on Heart [3] and in the assay on Rattus norvegicus were 9%, 59% and 47%, respectively. In addition, the IC50 in assay [1] is 0.22 µM.

On to `Cc1oc(-c2cc(F)ccc2F)nc1C(=O)N=C(N)N`, for which the IC50 in assay [1] worked out at 2.8 µM.

Regarding `COc1ccc(-c2nc(C(=O)N=C(N)N)c(C)[nH]2)cc1`, the IC50 in assay [1] is more than 30 µM.

Take `Cc1cc(C)cc(-c2nc(C(=O)N=C(N)N)c(C)o2)c1`: in assay [1], the IC50 is 7.1 µM.

On to `COc1ccccc1-c1nc(C(=O)N=C(N)N)c(C)[nH]1`, for which the IC50 in assay [1] amounted to 3.1 µM.

Consider `CS(=O)(=O)O.CS(=O)(=O)O.Cc1ccc(C)c(-c2nc(C(=O)N=C(N)N)c(C)[nH]2)c1`, for which the figures for the Activity in the assay on Heart [2], in the assay on Heart [3] and with Rattus norvegicus were 32%, 33% and 45%, respectively. The IC50 in assay [1] stood at 1.1 µM.

In the case of `Cc1oc(-c2ccc(Cl)cc2)nc1C(=O)N=C(N)N`, in assay [1], the IC50 was more than 30 µM.

For the molecule `Cc1ccccc1-c1nc(C(=O)N=C(N)N)c(C)[nH]1`, the IC50 in assay [1] came to 2.4 µM.

For the molecule `Cc1[nH]c(-c2ccc(F)cc2)nc1C(=O)N=C(N)N`, in assay [1], the IC50 is more than 30 µM.

For `Cc1[nH]c(-c2cccc(Cl)c2)nc1C(=O)N=C(N)N`, in assay [1], the IC50 turned out to be 4.5 µM.

Take `Cc1cc(C)cc(-c2nc(C(=O)N=C(N)N)c(C)[nH]2)c1`: the IC50 in assay [1] is 5 µM.

Turning to `CC(C)c1ccc(C(=O)N=C(N)N)cc1S(C)(=O)=O.CS(=O)(=O)O` [CARIPORIDE MESYLATE], the Activity with Heart [2] amounted to 22%; with Heart [3], 48%; in the assay on Rattus norvegicus it was 41%.

Consider `COc1cccc(-c2nc(C(=O)N=C(N)N)c(C)[nH]2)c1`, for which the IC50 in assay [1] is 4.1 µM.

Consider `Cc1[nH]c(-c2cc(F)ccc2F)nc1C(=O)N=C(N)N`, for which the IC50 in assay [1] came out at 3 µM.

On to `Cc1oc(-c2cc(F)cc(F)c2)nc1C(=O)N=C(N)N`, for which the IC50 in assay [1] amounted to 3.3 µM.

As for `Cc1oc(-c2cccc(Cl)c2)nc1C(=O)N=C(N)N`, the IC50 in assay [1] was 1.7 µM.

On to `Cc1oc(-c2cccc(F)c2)nc1C(=O)N=C(N)N`, for which the IC50 in assay [1] stood at 4.2 µM.
